Measurements from article PMC6917776, “Discovery of a chemical probe for PRDM9” (Nature Communications, 2019).
Read-outs that look alike come from different tables or passages of the source.

Tests used:
DNMT3A/3L = biological target: T1, DNMT3A/3L (Homo sapiens, UniProt Q9Y6K1); test: Methyltransferase selectivity assay (filter-based); format: biochemical
T1 construct: purchased Structural Genomics Consortium (SGC Toronto) in-house methyltransferase panel
Experimental: Selectivity against methyltransferases were determined as described previously. Details of the assays are described in the supplementary methods.
Methyltransferase selectivity assay1
The effect of chemical probes and negative controls on the methyltransferase activities of protein, DNA and RNA methyltransferases was tested by radiometric assays using 3H-SAM. […]
Briefly, a 10 µL reaction containing 3H- […]
The CPM in the absence of compound or enzyme was defined as 100% activity and background (0%), respectively, for each dataset. […]
For proteins which were tested with nucleosome as substrate such as DOT1L, NSD1, NSD2, NSD3, and ASH1L, or unbiotinylated Poly(2′-deoxyinosinic-2′-deoxycytidylic acid) (Cat# 81349-500UG, Sigma Aldrich) such as DNMT3A/3L, and DNMT3B/3L, a filter-based assay was used. In this assay, a trichloroacetic acid (TCA) protein precipitation protocol was employed. A 10 µL reaction mixture was incubated at 23°C for 1 h, followed by addition of 50 µL of 10% TCA. The mixture was transferred to filter plates (Millipore, Billerica, MA, USA) that were centrifuged at 2000 rpm (Allegra X-15R; Beckman Coulter, Brea, CA, USA) for 2 min. Samples were washed twice with 10% TCA and once with ethanol (180 µL), and centrifuged. After drying, 100 µL MicroScint-O (Perkin Elmer) was added to each well and the plates were centrifuged to remove the liquid. A 70 µL volume of MicroScint-O was added and the CPM was measured with a TopCount plate reader.

PRDM9 = PRDM9 (Homo sapiens, UniProt Q9NQV7); test: PRDM9 cellular assay: H3K4me3 of exogenous H3-GFP in HEK293T cells (western blot); format: cell-based; conditions: for IC50: H3-GFP and PRDM9-FLAG co-transfected, 20 h of treatment, read-out: IC50, PRDM9-dependent trimethylation of ectopic H3K4
PRDM9, sequence (Q9NQV7 whole entry): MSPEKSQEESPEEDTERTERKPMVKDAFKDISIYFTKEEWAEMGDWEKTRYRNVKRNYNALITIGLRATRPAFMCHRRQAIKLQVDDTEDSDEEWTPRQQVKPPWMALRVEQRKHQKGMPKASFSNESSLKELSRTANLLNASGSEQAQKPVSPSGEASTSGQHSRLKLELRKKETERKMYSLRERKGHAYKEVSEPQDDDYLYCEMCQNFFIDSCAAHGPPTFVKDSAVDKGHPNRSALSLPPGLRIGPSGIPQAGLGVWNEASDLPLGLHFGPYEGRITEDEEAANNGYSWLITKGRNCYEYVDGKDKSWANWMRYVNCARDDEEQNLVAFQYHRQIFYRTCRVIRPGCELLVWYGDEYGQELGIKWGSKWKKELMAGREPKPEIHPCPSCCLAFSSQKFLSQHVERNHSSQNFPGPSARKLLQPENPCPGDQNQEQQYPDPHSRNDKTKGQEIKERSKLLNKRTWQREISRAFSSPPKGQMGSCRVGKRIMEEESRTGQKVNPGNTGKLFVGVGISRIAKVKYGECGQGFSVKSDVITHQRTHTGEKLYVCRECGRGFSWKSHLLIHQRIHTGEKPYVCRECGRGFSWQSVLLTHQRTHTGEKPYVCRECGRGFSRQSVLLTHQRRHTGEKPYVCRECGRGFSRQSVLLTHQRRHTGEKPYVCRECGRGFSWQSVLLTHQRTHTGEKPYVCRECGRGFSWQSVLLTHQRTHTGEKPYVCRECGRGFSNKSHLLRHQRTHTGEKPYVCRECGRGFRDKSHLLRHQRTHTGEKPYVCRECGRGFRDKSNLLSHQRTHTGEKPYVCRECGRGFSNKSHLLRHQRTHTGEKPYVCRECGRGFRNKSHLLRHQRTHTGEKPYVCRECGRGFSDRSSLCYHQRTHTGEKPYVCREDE
Experimental: HEK293T cells were co-transfected with H3-GFP and PRDM9-FLAG and treated with compounds at indicated concentrations for 20 h. Mut denotes PRDM9 catalytic mutant (Y357S). […] Cells were treated with compounds for 1 day. Cell number was measured using IncuCyte™ ZOOM live cell imaging device. The results are mean ± sd, n = 3. Source data are provided as a Source Data file.
HEK293T (kind gift from Sam Benchimol, York University), or MCF7 (ATCC® HTB-22™), cells were plated (12 well plates) and next day co-transfected with 0.1 (HEK293T) or 0.2 (MCF7) µg of GFP-tagged histone H3 and with 0.1 (HEK293T) or 0.2 (MCF7) µg of Flag-tagged PRDM9/PRDM9 catalytic mutant (Y357S) and 0.8 or 0.6 µg of empty vector using JetPRIME® transfection reagent, following manufacturer instructions. After 4 h media was removed and cells were treated with compounds for 20 h. Next day, cells were lysed in lysis buffer (20 mM Tris-HCl pH 8, 150 mM NaCl, 1 mM EDTA, 10 mM MgCl2, 0.5% TritonX-100, 12.5 U mL^−1 benzonase (Sigma), complete EDTA-free protease inhibitor cocktail (Roche)). After 2 min incubation at RT, SDS was added to final 1% concentration. Cell lysates were analyzed in western blot for GFP and H3K4me3 levels. All cell lines were mycoplasma negative, as determined by MycoAlert™ Mycoplasma Detection Kit (Lonza).
Total cell lysates were resolved in 4–12% Bis-Tris Protein Gels (Invitrogen) and transferred in for 1.5 h (80 V) onto PVDF membrane (Millipore) in Tris-Glycine transfer buffer containing 20% MeOH and 0.05% SDS. Blots were blocked for 1 h in blocking buffer (5% milk in PBS) and incubated with primary antibodies anti-GFP (1:3000, Clontech # 632381), anti-H3K4me3 (1:1000, Millipore, #04-745), anti-histone H3 (1:2000, #ab10799, Abcam), anti-Flag (1:5000, #F4799, Sigma) in blocking buffer (5% BSA in 0.1% Tween 20 PBS) overnight at 4 °C. After five washes with 0.1% Tween 20 PBS the blots were incubated with goat-anti rabbit (IR800) and donkey anti-mouse (IR 680) antibodies (1:5000) in Odyssey Blocking Buffer (LiCor) for 1 h at RT and washed five times with 0.1% Tween 20 PBS. The signal was read on an Odyssey scanner (LiCor) at 800 nm and 700 nm and analyzed with Image Studio Ver.5.2 software.

PRDM14 = PRDM14 (Homo sapiens, UniProt Q9GZV8); test: DSF thermal stabilisation, PRDM selectivity; format: binding; conditions: 250 µM MRK-740; 2 mM SAM
Experimental: (§1) DSF measurements were performed as previously described[21] using a Light Cycler 480 II instrument from Roche Applied Science. All proteins tested in these selectivity experiments were used at final concentration of 0.02 mg mL^−1 in a 0.1 M HEPES, pH 7.5 and 150 mM NaCl buffer in the presence of 2 mM SAM. Sypro Orange was purchased from Invitrogen as a 5000 × stock solution (concentration not specified by vendor) and was diluted 1:1000 to yield a 5 × working concentration. The temperature scan curves were fitted to a Boltzmann sigmoid function, and the Tm values were obtained from the midpoint of the transition.

PRDM10 = PRDM10 (Homo sapiens, UniProt Q9NQV6); test: DSF thermal stabilisation, PRDM selectivity; format: binding; conditions: 250 µM MRK-740; 2 mM SAM
Experimental: as §1

PRDM2 = PRDM2 (Homo sapiens, UniProt Q13029); test: DSF thermal stabilisation, PRDM selectivity; format: binding; conditions: 250 µM MRK-740; 2 mM SAM
Experimental: as §1

PRDM16 = PRDM16 (Homo sapiens, UniProt Q9HAZ2); test: DSF thermal stabilisation, PRDM selectivity; format: binding; conditions: 250 µM MRK-740; 2 mM SAM
PRDM16, sequence (Q9HAZ2 whole entry): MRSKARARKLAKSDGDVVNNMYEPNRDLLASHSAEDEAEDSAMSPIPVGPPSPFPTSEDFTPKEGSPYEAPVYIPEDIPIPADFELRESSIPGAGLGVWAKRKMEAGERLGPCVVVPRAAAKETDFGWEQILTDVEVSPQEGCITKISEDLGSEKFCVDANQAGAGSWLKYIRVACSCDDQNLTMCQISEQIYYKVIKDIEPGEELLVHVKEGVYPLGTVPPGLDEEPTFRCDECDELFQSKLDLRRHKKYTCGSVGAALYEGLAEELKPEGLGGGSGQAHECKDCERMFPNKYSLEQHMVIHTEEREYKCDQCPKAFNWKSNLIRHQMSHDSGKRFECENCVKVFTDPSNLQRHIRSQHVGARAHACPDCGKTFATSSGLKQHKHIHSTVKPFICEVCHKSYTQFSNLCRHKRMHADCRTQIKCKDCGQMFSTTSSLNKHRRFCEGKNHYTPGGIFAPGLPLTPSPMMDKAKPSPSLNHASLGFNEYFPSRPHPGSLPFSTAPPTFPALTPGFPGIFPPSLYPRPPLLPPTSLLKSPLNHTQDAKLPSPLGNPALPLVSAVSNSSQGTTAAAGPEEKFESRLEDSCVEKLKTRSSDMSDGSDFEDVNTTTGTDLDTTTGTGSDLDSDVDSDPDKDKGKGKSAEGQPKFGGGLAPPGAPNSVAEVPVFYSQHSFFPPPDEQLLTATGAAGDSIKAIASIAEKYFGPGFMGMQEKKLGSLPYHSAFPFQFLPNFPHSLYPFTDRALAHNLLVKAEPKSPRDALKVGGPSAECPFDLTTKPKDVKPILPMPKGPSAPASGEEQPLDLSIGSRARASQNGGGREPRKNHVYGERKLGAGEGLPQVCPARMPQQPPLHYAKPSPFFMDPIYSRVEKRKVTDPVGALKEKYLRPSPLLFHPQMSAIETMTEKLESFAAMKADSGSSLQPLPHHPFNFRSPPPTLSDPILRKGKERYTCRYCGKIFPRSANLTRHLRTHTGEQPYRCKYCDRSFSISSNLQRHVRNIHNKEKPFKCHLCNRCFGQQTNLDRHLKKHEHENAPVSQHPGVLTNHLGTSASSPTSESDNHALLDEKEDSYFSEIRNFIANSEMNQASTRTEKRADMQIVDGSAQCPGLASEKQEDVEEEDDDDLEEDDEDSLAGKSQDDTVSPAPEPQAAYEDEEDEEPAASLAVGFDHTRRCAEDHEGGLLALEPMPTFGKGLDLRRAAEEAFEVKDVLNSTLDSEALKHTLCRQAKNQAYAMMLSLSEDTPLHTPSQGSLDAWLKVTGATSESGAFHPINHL
Experimental: as §1

PRDM8 = PRDM8 (Homo sapiens, UniProt Q9NQV8); test: DSF thermal stabilisation, PRDM selectivity; format: binding; conditions: 250 µM MRK-740; 2 mM SAM
PRDM8, sequence (Q9NQV8 whole entry): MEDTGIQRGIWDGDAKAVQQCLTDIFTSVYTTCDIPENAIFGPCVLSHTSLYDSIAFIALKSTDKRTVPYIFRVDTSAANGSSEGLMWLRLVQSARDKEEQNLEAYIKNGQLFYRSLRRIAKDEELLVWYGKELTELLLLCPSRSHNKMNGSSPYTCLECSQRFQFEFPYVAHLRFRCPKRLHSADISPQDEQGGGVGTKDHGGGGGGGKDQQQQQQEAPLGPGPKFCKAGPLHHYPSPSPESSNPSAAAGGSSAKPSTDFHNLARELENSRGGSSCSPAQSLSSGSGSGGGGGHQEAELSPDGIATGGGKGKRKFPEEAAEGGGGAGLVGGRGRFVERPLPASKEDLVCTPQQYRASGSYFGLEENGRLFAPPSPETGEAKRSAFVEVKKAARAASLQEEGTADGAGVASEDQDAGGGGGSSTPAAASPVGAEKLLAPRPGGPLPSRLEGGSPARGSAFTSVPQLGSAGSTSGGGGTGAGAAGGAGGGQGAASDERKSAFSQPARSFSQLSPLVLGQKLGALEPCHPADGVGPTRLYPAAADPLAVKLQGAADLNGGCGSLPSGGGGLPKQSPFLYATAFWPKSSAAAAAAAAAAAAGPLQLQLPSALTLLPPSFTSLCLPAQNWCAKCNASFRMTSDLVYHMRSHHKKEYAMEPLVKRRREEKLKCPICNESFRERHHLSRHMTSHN
Experimental: as §1

PRDM1 = PRDM1 (Homo sapiens, UniProt O75626); test: DSF thermal stabilisation, PRDM selectivity; format: binding; conditions: 250 µM MRK-740; 2 mM SAM
Experimental: as §1

PRDM13 = PRDM13 (Homo sapiens, UniProt Q9H4Q3); test: DSF thermal stabilisation, PRDM selectivity; format: binding; conditions: 250 µM MRK-740; 2 mM SAM
Experimental: as §1

PRDM6 = PRDM6 (Homo sapiens, UniProt Q9NQX0); test: DSF thermal stabilisation, PRDM selectivity; format: binding; conditions: 250 µM MRK-740; 2 mM SAM
PRDM6, sequence (Q9NQX0 whole entry): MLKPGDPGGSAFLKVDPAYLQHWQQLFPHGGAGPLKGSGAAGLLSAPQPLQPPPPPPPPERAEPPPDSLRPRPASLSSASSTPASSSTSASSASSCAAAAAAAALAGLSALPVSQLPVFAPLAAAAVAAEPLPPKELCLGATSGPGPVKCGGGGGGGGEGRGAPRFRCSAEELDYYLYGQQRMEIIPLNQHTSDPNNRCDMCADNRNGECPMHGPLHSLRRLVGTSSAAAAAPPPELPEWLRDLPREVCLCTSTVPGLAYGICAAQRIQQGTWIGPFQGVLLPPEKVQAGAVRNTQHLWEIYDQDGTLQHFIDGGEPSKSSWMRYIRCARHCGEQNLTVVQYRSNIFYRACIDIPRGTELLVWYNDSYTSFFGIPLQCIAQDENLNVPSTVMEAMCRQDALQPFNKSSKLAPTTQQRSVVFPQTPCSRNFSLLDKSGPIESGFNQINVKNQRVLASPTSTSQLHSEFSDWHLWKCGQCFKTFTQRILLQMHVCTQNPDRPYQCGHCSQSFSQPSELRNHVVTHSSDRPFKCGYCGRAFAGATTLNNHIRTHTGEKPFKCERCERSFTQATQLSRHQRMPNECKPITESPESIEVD
Experimental: as §1

PRDM11 = PRDM11 (Homo sapiens, UniProt Q9NQV5); test: DSF thermal stabilisation, PRDM selectivity; format: binding; conditions: 250 µM MRK-740; 2 mM SAM
Experimental: as §1

PRDM12 = PRDM12 (Homo sapiens, UniProt Q9H4Q4); test: DSF thermal stabilisation, PRDM selectivity; format: binding; conditions: 250 µM MRK-740; 2 mM SAM
Experimental: as §1

PRDM3 = PRDM3 (Homo sapiens, UniProt Q03112); test: DSF thermal stabilisation, PRDM selectivity; format: binding; conditions: 250 µM MRK-740; 2 mM SAM
Experimental: as §1

[1] = HEK-293T, 20 h, Figure 6b, replicates, read-out: H3K4me3/GFP - western blot, % control

T1 sequence (Q9Y6K1 whole entry, looked up): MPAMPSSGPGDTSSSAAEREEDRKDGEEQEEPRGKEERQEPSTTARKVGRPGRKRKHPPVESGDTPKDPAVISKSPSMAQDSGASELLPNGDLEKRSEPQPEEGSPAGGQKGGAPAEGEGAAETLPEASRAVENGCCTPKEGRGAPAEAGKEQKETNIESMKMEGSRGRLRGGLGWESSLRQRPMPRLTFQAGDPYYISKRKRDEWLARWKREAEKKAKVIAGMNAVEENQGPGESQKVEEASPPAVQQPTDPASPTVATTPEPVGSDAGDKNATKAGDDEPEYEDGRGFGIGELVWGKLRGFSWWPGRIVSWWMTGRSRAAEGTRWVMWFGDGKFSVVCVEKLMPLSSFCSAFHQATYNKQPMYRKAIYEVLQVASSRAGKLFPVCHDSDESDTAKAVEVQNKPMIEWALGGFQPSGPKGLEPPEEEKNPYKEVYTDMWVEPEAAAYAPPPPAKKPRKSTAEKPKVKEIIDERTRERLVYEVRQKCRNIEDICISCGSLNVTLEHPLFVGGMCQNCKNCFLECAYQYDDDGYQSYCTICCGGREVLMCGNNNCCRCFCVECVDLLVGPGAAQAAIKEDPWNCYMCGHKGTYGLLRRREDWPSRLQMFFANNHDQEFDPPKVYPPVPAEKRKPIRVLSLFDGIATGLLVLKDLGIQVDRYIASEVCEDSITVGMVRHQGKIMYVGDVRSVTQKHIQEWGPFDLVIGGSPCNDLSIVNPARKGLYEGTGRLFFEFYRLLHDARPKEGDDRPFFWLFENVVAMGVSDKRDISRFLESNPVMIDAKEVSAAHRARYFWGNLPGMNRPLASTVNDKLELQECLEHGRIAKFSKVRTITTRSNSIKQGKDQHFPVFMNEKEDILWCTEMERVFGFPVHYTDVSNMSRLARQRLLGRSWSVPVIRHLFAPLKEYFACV
T1 sequence (Q9UJW3 whole entry partner): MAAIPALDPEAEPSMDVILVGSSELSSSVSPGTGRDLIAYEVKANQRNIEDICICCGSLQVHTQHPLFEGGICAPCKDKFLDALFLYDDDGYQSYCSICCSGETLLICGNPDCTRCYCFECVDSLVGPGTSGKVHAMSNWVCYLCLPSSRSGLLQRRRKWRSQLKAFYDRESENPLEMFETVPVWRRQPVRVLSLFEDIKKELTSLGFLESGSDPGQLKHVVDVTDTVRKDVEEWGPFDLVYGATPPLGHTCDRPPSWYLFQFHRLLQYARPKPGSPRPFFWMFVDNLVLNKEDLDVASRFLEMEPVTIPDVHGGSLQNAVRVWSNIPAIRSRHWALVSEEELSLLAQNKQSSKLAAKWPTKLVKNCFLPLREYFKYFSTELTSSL

`COc1cc(OC)cc(-c2noc(N3CCN(C)C4(CCN(c5ccccc5)CC4)C3)n2)c1` [MRK-740 -NC] showed an activity at 1 µM (DNMT3A/3L; 1µM compound, Exp1, Exp2) of 100%, an Activity % (DNMT3A/3L; 1µM compound, Exp1, Exp2, 1 µM) of 91% and an activity at 10 µM (DNMT3A/3L; 10µM compound, Exp1, Exp2) of 96%. It also gave an Activity % (DNMT3A/3L; 10µM compound, Exp1, Exp2, 10 µM) of 87%.
With `COc1cc(OC)cc(-c2noc(N3CCN(C)C4(CCN(c5ccccc5)CC4)C3)n2)c1` [MRK-740-NC] the IC50 (PRDM9) was over 10000 nM, the remaining activity at 0.256 µM (PRDM9; HEK-293T, 20 h, 0.256 µM, Figure 6b, replicates, read-out: H3K4me3/GFP - western blot, % control) was 100% and the remaining activity at 0.64 µM (PRDM9; HEK-293T, 20 h, 0.64 µM, Figure 6b, replicates, read-out: H3K4me3/GFP - western blot, % control) was 89.9%. The remaining activity at 1.6 µM (PRDM9; HEK-293T, 20 h, 1.6 µM, Figure 6b, replicates, read-out: H3K4me3/GFP - western blot, % control) was 103%, the remaining activity at 3.33334 µM (PRDM9; [1]) was 113% and the remaining activity at 4 µM (PRDM9; HEK-293T, 20 h, 4 µM, Figure 6b, replicates, read-out: H3K4me3/GFP - western blot, % control) was 111%. The remaining activity at 10 µM (PRDM9; HEK-293T, 20 h, 10 µM, Figure 6b, replicates, read-out: H3K4me3/GFP - western blot, % control) was 116%.
In the case of `COc1cc(OC)cc(-c2noc(N3CCN(C)C4(CCN(c5ccnc(C)c5)CC4)C3)n2)c1` [MRK-740], the “∆ Tm (°C), DSF” value (PRDM14) is reported as -2.3 °C, the “∆ Tm (°C), DSF” value (PRDM10) is reported as -0.4 °C and the “∆ Tm (°C), DSF” value (PRDM2) is reported as -1.1 °C. The “∆ Tm (°C), DSF” value (PRDM16) was -0.225 °C, the “∆ Tm (°C), DSF” value (PRDM8) was 1.4 °C and the “∆ Tm (°C), DSF” value (PRDM1) was -0.458 °C. The “∆ Tm (°C), DSF” value (PRDM13) was -1.0 °C, the “∆ Tm (°C), DSF” value (PRDM6) was -0.633 °C and the “∆ Tm (°C), DSF” value (PRDM11) was -0.536 °C. For the same compound, the “∆ Tm (°C), DSF” value (PRDM12) was -0.9 °C, the “∆ Tm (°C), DSF” value (PRDM3) was -1.3 °C and the IC50 (PRDM9) was 800 ± 100 nM. It also gave a remaining activity at 0.123455 µM (PRDM9; HEK-293T, 20 h, 0.123455 µM, Figure 6b, replicates, read-out: H3K4me3/GFP - western blot, % control) of 109%, a remaining activity at 0.370374 µM (PRDM9; HEK-293T, 20 h, 0.370374 µM, Figure 6b, replicates, read-out: H3K4me3/GFP - western blot, % control) of 89.7% and a remaining activity at 1.11111 µM (PRDM9; HEK-293T, 20 h, 1.11111 µM, Figure 6b, replicates, read-out: H3K4me3/GFP - western blot, % control) of 25.7%. It also gave a remaining activity at 3.33334 µM (PRDM9; [1]) of 11.4%, a remaining activity at 30 µM (PRDM9; HEK-293T, 20 h, 30 µM, Figure 6b, replicates, read-out: H3K4me3/GFP - western blot, % control) of 3.21% and an IC90 (PRDM9; HEK-293T, read-out: IC90, PRDM9-dependent H3K4 trimethylation in cells) of 3000 nM. The Activity % (DNMT3A/3L; 1µM compound, Exp1, Exp2, 1 µM) was 107%, the activity at 1 µM (DNMT3A/3L; 1µM compound, Exp1, Exp2, read-out: Activity %) was 108% and the activity at 10 µM (DNMT3A/3L; 10µM compound, Exp1, Exp2, read-out: Activity %) was 100%.
